Measured values reported in patent US8178678B2, “Bis-quaternary ammonium salts and methods for modulating neuronal nicotinic acetylcholine receptors” (University of Kentucky Research Foundation, priority 2006, dated 2012).

Tests used:
[1] = molecular target: T1, Rat Striatal Nicotinic Receptors ([^3H]MLA binding sites; α7) (Rattus norvegicus, UniProt Q05941); assay: Inhibition of [^3H]MLA (methyllycaconitine) binding; conditions: 100 nM analog, [^3H]MLA, nonspecific S-nicotine, rat brain membranes; for inhibition at 0.1 µM: read-out: [^3H]MLA binding, % inhibition
T1 construct: Whole brain, excluding cortex and cerebellum, was homogenized in 20 vol of ice-cold buffer; from tissue; host or cells: rat brain membranes (whole brain excluding cortex and cerebellum)
Procedure: Homogenate was centrifuged (25,000 g, 15 min, 4° C). Pellets were resuspended in 20 vol buffer and incubated at 37° C., for 10 min, cooled to 4° C. and centrifuged (25,000 g, 15 min, 4° C.). Pellets were resuspended and centrifuged using the same conditions. […] Upon use, final pellets were resuspended in 20 vol assay buffer. Samples (250 μl) contained 100-140 μg of membrane protein, 3 nM [^3H]-S-nicotine or 3 nM [^3H]-methyllycaconitine (MLA), and bis-quaternary ammonium analog (100 nM) in assay buffer containing 50 mM Tris. Control was in the absence of analog. In [^3H]-S-nicotine and [^3H]-methyllycaconitine binding assays, nonspecific binding was determined in the presence of 10 μM cytisine and 10 μM S-nicotine, respectively. Incubations proceeded for 60 min at room temperature using 96-well plates and were terminated by harvesting on Unifilter-96 GF/B filter plates presoaked in 0.5% polyethylenimine, using a Packard FilterMate harvester. After washing 5 times with 350 μl ice-cold assay buffer, filter plates were dried (60 min, 4° C.), bottom-sealed, and filled with Packard's MicroScint 20 cocktail (40 μl/well). After 60 min, filter plates were top-sealed, and radioactivity determined using a Packard TopCount. Protein concentrations were determined using the Bradford dye-binding procedure bovine serum albumin as the standard. […]

[2] = molecular target: T2, Rat Striatal Nicotinic Receptors ([^3H]NIC binding sites; α4β2) (Rattus norvegicus, UniProt P09483+P12390); assay: Inhibition of [^3H]NIC binding; conditions: 100 nM analog, 3 nM [^3H]NIC, nonspecific 10 μM cytisine, rat brain membranes; for inhibition at 0.1 µM: 1 h
T2 construct: Whole brain, excluding cortex and cerebellum, was homogenized in 20 vol of ice-cold buffer; from tissue; host or cells: rat brain membranes (whole brain excluding cortex and cerebellum)
Procedure: Homogenate was centrifuged (25,000 g, 15 min, 4° C). Pellets were resuspended in 20 vol buffer and incubated at 37° C., for 10 min, cooled to 4° C. and centrifuged (25,000 g, 15 min, 4° C.). Pellets were resuspended and centrifuged using the same conditions. […] Upon use, final pellets were resuspended in 20 vol assay buffer. Samples (250 μl) contained 100-140 μg of membrane protein, 3 nM [^3H]-S-nicotine or 3 nM [^3H]-methyllycaconitine (MLA), and bis-quaternary ammonium analog (100 nM) in assay buffer containing 50 mM Tris. Control was in the absence of analog. In [^3H]-S-nicotine and [^3H]-methyllycaconitine binding assays, nonspecific binding was determined in the presence of 10 μM cytisine and 10 μM S-nicotine, respectively. Incubations proceeded for 60 min at room temperature using 96-well plates and were terminated by harvesting on Unifilter-96 GF/B filter plates presoaked in 0.5% polyethylenimine, using a Packard FilterMate harvester. After washing 5 times with 350 μl ice-cold assay buffer, filter plates were dried (60 min, 4° C.), bottom-sealed, and filled with Packard's MicroScint 20 cocktail (40 μl/well). After 60 min, filter plates were top-sealed, and radioactivity determined using a Packard TopCount. Protein concentrations were determined using the Bradford dye-binding procedure bovine serum albumin as the standard.
Specific binding in the [^3H]NIC binding assay is calculated as the difference between the total binding of 3 nM [^3H]NIC and nonspecific binding in the presence of 10 μM cold cytisine. […] Analog-induced inhibition of S-nicotine-evoked [^3H]DA release is calculated as a percent of that in the absence of the bis-quaternary ammonium analog.

[3] = system: nicotinic receptors mediating S-nicotine-evoked [^3H]DA release in rat striatal slices; assay: Inhibition of S-nicotine-evoked [^3H]dopamine release from superfused rat striatal slices; assay type: cell-based; conditions: 100 nM analog superfused 60 min before NIC 10 μM, rat striatal slices; for inhibition at 0.1 µM: 1 h, read-out: [^3H]DA release, % inhibition of S-nicotine-evoked release
Procedure: Rat striatal slices (500 μm thickness, 6-8 mg wet weight) were incubated for 30 minutes in Krebs buffer (118 mM NaCl, 4.7 mM KCl, 1.2 mM MgCl2, 1.0 mM NaH2PO4, 1.3 mM CaCl2, 11.1 mM glucose, 25 mM NaHCO3, 0.11 mM L-ascorbic acid, and 0.004 mM disodium EDTA; pH 7.4, and saturated with 95% O2/5% CO2) in a metabolic shaker at 34° C. Slices were rinsed with 15 mL of fresh buffer and incubated for an additional 30 minutes in fresh buffer containing 0.1 μM [^3H]dopamine (DA; 6 slices/3 mL). Subsequently, slices were rinsed with 15 mL of fresh buffer and transferred to a glass superfusion chamber. Slices were superfused (1.0 mL/min) for 60 minutes with Krebs buffer containing nomifensine (10 μM) and pargyline (10 μM) and maintained at 34° C., pH 7.4, with continual aeration (95% O2/5% CO2). Two five minute samples (5 mL each) were collected to determine basal outflow of [^3H]DA. The bis-quaternary ammonium analogs were added to the superfusion buffer after the collection of the second sample and remained in the buffer until 12 consecutive five minute samples were collected. Subsequently, S-nicotine (NIC; 10 μM) was added to the buffer and an additional 12 consecutive five minute samples were collected. At the end of the experiment, each slice was solubilized and the [^3H] content of the tissue determined.
Radioactivity in the superfusate and tissue samples was determined by liquid scintillation spectroscopy. Fractional release for tritium collected in each sample was divided by the total tritium present in the tissue at the time of sample collection and was expressed as a percentage of total tritium. Basal [^3H]outflow was calculated from the average of the tritium collected in the two five minute samples just before addition of the quaternary analog. The sum of the increase in collected tritium resulting from either exposure to the test compound or exposure to S-nicotine in the absence and presence of the test compound equaled total [^3H]overflow. [^3H]Overflow was calculated by subtracting the [^3H]outflow during an equivalent period of prestimulation from the values in samples collected during and after drug exposure. Inasmuch as the radiolabelled compounds were not separated and identified, the tritium collected in superfusate is referred to as either [3H]outflow or [^3H]overflow, rather than as [^3H]DA. [^3H]Overflow primarily represents [^3H]DA in the presence of nomifensine and pargyline in the superfusion buffer.
The bis-quaternary ammonium analogs were also evaluated for their ability to inhibit NIC evoked [^3H]DA release. In these experiments, the striatal slices were superfused for 60 minutes with 100 nM concentration of the quaternary analogs prior to NIC (10 μM) exposure. Antagonist activity was evaluated by comparing the NIC-evoked [^3 H]overflow in the absence and presence of the analogs. The relative order of potency of the quaternary analogs for inhibition of NIC-evoked [^3H]DA release from rat striatal slices is illustrated in Table 1.
^aData are % inhibition at 100 nM concentration of the bis-quaternary ammonium analogs for at least 1-3 independent experiments; with the exception of when a Ki value in μM is provided, in which case a full concentration effect was evaluated. Specific binding in the [^3H]NIC binding assay is calculated as the difference between the total binding of 3 nM [^3H]NIC and nonspecific binding in the presence of 10 μM cold cytisine. Specific binding for the [^3H]MLA binding assay is calculated as the difference between the total binding of […] [^3H]MLA to the receptors alone and its nonspecific binding in the presence of […] cold S-nicotine. Analog-induced inhibition of S-nicotine-evoked [^3H]DA release is calculated as a percent of that in the absence of the bis-quaternary ammonium analog.

T2 sequence (P09483 31-630): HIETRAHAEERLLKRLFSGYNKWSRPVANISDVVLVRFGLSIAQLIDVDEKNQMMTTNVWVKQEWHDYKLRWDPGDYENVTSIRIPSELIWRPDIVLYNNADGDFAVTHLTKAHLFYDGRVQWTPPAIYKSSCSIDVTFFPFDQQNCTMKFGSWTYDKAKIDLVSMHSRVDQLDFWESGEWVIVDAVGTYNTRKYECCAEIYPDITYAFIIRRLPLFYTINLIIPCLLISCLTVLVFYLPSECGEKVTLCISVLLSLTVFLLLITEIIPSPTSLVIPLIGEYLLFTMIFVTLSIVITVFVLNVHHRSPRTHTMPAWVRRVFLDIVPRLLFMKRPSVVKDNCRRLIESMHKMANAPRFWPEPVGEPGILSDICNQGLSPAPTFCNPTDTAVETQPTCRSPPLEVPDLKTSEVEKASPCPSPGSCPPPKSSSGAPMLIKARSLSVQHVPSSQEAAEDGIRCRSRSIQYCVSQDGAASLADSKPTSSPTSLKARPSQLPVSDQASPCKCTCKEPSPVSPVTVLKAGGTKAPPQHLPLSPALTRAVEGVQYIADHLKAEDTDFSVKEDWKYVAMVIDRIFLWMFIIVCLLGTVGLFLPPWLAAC
T2 sequence (P12390 25-500): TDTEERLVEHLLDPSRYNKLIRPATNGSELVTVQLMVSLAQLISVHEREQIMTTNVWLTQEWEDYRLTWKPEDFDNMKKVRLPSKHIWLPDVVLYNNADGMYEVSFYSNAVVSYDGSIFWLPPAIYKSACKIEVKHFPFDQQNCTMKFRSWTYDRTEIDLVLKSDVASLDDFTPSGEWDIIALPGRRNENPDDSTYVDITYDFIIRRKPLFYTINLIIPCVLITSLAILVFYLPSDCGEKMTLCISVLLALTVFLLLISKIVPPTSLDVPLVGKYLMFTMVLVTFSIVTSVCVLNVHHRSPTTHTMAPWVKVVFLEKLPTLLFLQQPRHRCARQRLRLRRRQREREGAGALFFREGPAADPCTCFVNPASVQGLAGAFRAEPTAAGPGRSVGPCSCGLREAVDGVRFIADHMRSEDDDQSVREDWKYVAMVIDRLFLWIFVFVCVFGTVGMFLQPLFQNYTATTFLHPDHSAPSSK
T1 sequence (Q05941 23-502): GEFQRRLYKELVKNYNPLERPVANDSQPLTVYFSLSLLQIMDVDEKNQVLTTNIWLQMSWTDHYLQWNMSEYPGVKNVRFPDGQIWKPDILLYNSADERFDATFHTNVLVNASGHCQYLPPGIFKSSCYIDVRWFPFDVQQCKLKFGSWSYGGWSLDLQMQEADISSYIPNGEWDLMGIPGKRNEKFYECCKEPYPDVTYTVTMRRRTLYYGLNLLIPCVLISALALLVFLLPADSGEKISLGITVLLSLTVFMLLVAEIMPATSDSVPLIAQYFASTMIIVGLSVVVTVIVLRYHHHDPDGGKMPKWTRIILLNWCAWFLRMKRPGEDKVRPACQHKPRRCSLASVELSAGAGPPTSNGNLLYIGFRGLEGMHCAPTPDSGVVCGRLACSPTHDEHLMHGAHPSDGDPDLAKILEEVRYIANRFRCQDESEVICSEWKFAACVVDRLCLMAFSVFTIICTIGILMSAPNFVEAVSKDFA

Row | Compound | inhibition at 0.1 µM [1] [%] | inhibition at 0.1 µM [2] [%] | inhibition at 0.1 µM [3] [%] | [^3H]MLA binding, % inhibition [1] [%] | [^3H]NIC binding, % inhibition [2] [%] | [^3H]DA release, % inhibition of S-nicotine-evoked release [3] [%]
1 | c1cc[n+](CCCCCc2ccccc2CCCCC[n+]2ccccc2)cc1 [Example 45, 1,2-bis-(5-pyridinium-pentyl)-benzene dibromide] | 1.9 | 3.3 | 37 |  |  | 
2 | Brc1ccc[n+](CCCCCc2ccccc2CCCCC[n+]2cccc(Br)c2)c1 [Example 44, 1,2-bis-[5-(3-bromo-pyridinium)-pentyl]-benzene dibromide] | 0.9 | 2.9 | 7 |  |  | 
3 | Cc1cccc[n+]1CCCC#Cc1cccc(C#CCCC[n+]2ccccc2C)c1 [Example 48, 1,3-bis-[5-(2-methyl-pyridinium)-pent-1-ynyl]-benzene dibromide] | 0 | 1.9 | 35 |  |  | 
4 | CN1CCC[C@@H]1c1ccc[n+](CCCC#Cc2ccccc2C#CCCC[n+]2cccc([C@@H]3CCCN3C)c2)c1 [Example 31, 1,2-bis-[5-(2′-S-nicotinium-pent-1-ynyl)]benzene dibromide] | 9.2 | 72 | 35 |  |  | 
5 | Cc1ccc[n+](CCCC#Cc2cccc(C#CCCC[n+]3cccc(C)c3)c2)c1 [Example 49, 1,3-bis-[5-(3-methyl-pyridinium)-pent-1-ynyl]-benzene dibromide] | 8 | 0.5 | 6 |  |  | 
6 | Cc1cc(C)c[n+](CCCC#Cc2cccc(C#CCCC[n+]3cc(C)cc(C)c3)c2)c1 [Example 53, 1,3-bis-[5-(3,5-dimethyl-pyridinium)-pent-1-ynyl]-benzene dibromide] | 1.3 | 0 | 4 |  |  | 
7 | C(#Cc1cccc(C#CCCC[n+]2ccccc2)c1)CCC[n+]1ccccc1 [Example 59, 1,3-bis-(5-pyridinium-pent-1-ynyl)-benzene dibromide] | 4.4 | 3.6 | 12 |  |  | 
8 | C(#Cc1ccccc1C#CCCC[n+]1ccc2ccccc2c1)CCC[n+]1ccc2ccccc2c1 [Example 30, 1,2-bis-(5-isoquinolinium-pent-1-ynyl)-benzene dibromide] | 1.1 | 1.6 | 24 |  |  | 
9 | C(#Cc1cccc(C#CCCC[n+]2ccc3ccccc3c2)c1)CCC[n+]1ccc2ccccc2c1 [Example 55, 1,3-bis-(5-isoquinolinium-pent-1-ynyl)-benzene dibromide] | 5.6 | 7.4 | 31 |  |  | 
10 | Cc1cc(C)c[n+](CCCCCc2cccc(CCCCC[n+]3cc(C)cc(C)c3)c2)c1 [Example 67, 1,3-bis-[5-(3,5-dimethyl-pyridinium)-pentyl]-benzene dibromide] | 1.4 | 4.8 | 34 |  |  | 
11 | Cc1ccc[n+](CCOCCOCCOCC[n+]2cccc(C)c2)c1 [Example 82, N,N′-{2,2′-[oxybis-(2,1-ethandiyloxy)]bis-ethyl}-bis(3-methylpyridinium)dichloride] | 13 | 17 | 58 |  |  | 
12 | Cc1ccc[n+](CCCc2ccc(-c3ccc(CCC[n+]4cccc(C)c4)cc3)cc2)c1 [Example 78, N,N′-[(1,1′-biphenyl)-4,4′-di-(3-propanyl)]-bis-(3-methylpyridinium)dibromide] | 5.5 | 0 | 44 |  |  | 
13 | N,N′-[(1,1′-biphenyl)-4,4′-di-(3-propanyl)]-bis-[3-(2′-S-1-methyl-pyrrolidin-2-yl)-pyridinium]dibromide [Example 70] |  |  |  | 11 | 12 | 8
14 | Cc1ccc[n+](CCCCCc2ccccc2CCCCC[n+]2cccc(C)c2)c1 [Example 35, 1,2-bis-[5-(3-methyl-pyridinium)-pentyl]-benzene dibromide] | 5.4 | 0 | 25 |  |  | 
15 | Cc1ccc[n+](CCCCCc2cccc(CCCCC[n+]3cccc(C)c3)c2)c1 [Example 63, 1,3-bis-[5-(3-methyl-pyridinium)-pentyl]-benzene dibromide] | 6.24 | 3.5 | 45 |  |  | 
16 | C(#Cc1ccccc1C#CCCC[n+]1cccc2ccccc21)CCC[n+]1cccc2ccccc21 [Example 29, 1,2-bis-(5-quinolinium-pent-1-ynyl)-benzene dibromide] | 2.3 | 0 | 20 |  |  | 
17 | Cc1cc(C)c[n+](CCCC#Cc2ccccc2C#CCCC[n+]2cc(C)cc(C)c2)c1 [Example 28, 1,2-bis-[5-(3,5-dimethyl-pyridinium)-pent-1-ynyl]-benzene dibromide] | 5 | 1.3 | 19 |  |  | 
